Consider 1 compound from US20230135761A1, “TRANSGENIC PLANTS HAVING PROLONGED RIPENING AND REDUCED SUSCEPTIBILITY TO PATHOGENS” (MIGAL GALILEE RESEARCH INSTITUTE LTD, priority 2020, published 2023).

The test deals with ICDH1 mRNA. Nature of the test: ICDH1 mRNA levels by real time PCR in 1-MCP-treated tomato fruits. The test is classed as in vivo, Solanum lycopersicum; cv. Micro Tom. The following applies: 1-MCP-treated vs untreated Micro-Tom tomatoes; 24 hr at 20° C.; stages MG, BRK, EO; FIG. 2. Here is the method: Tomato (Solanum lycopersicum; cv. Micro Tom) plants were grown under natural light in a climate-controlled greenhouse, at 24° C. during the day and 18° C. during the night. 1-MCP was applied using SmartFresh powder (Rohm and Haas, Philadelphia, Pa., USA) containing 0.14% 1-MCP as active ingredient, dissolved in warm water at a concentration of 2,000 nL·mL^−1 1-MCP (stock solution). Fruits were enclosed in a 30 L airtight barrel and the stock solution was injected to a final concentration of […]. Treatment duration was 24 hr at 20° C. For the control, fruits were treated identically excluding 1-MCP application (Gamrasni et al., 2017).
RNA was extracted using NucleoSpin® RNA Plant kit (Macherey-Nagel) according to the manufacturer's protocol. cDNA was prepared from 1 μg total RNA with Verso cDNA Synthesis Kit (ThermoFisher Scientific). The reaction was performed at 42° C. for 30 min. followed by inactivation at 95° C. for 2 min. […] Relative expression ratio was normalized to the S1ASR gene (Solyc04g071610) used as an internal control (Relative RNA levels were determined by the delta-delta Ct method). The significance of results (n=3) was evaluated by independent t-test at *P<0.05 using the SPSS Statistics 20 software (IBM, USA).
A general note: Quantitative PCR measures a nucleic acid by following its amplification.

Take `CC1=CC1` [1-MCP, 1-methylcyclopropene]: the “ICDH1 mRNA production / levels” value was “reduced significantly”.
